{"source": "paper PMC2858264", "about": "(Biochemistry, 2010)", "target": "T1, rR-HPCDH1 (Xanthobacter versatilis, UniProt Q56840)", "T1 sequence (Q56840 2-250)": "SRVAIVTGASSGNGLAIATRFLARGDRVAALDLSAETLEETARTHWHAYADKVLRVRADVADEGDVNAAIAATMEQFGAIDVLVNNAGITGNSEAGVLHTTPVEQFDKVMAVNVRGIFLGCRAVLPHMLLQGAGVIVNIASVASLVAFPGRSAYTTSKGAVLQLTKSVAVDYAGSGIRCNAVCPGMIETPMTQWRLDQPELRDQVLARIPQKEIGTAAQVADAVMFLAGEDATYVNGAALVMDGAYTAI", "assay": "NADH absorbance at […] nm, initial rates", "format": "biochemical", "data": [{"smiles": "CC(C)(O)CSCCS(=O)(=O)O", "note": "[M-HPC, 2-(2-methyl-2-hydroxypropylthio)ethanesulfonate]", "values": [{"measurement": "Ki", "result": "290 ± 14", "unit": "µM"}]}]}
